Target: human recombinant PDE4B1 enzyme (Homo sapiens (Human), UniProt Q07343)
Assay: Inhibition of PDE4B1 activity by cAMP HTRF assay
Format: biochemical
Conditions: human recombinant PDE4B1, cAMP 40 nM, pH 7.4
Method: Determination of the inhibition of the compounds on PDE4B1 activity by using cAMP HTRF® assay
The inhibitory effect of the compounds on human PDE4B1 enzyme activity was determined by quantifying the 5′-adenosine monophosphate (5′-AMP) formed from 3′,5′-cyclic adenosine monophosphate (cAMP).
The test compound or water (control) and human recombinant PDE4B1 enzyme (4.8 U) were mixed in a buffer solution (pH 7.4) consisting of 1× Hanks' balanced salt solution (HBSS), 5 mM HEPES, 3 mM MgCl2, and 0.1% BSA and incubated for 10 min. A cAMP enzyme substrate (final concentration 40 nM) was added, and the mixture was incubated at room temperature for 60 min. Then a fluorescent acceptor (Dye2 labeled with cAMP), a fluorescent donor (anti-cAMP antibody labeled with europium cryptate) and a non-specific phosphodiesterase inhibitor IBMX (3-isobutyl-1-methyl xanthine; final concentration 1 mM) were added. After 60 min, the fluorescence transfer related to the amount of remaining cAMP was measured on a microplate reader (Rubystar, BMG) at λex=337 nm, λem=620 nm and λem=665 nm. The enzyme activity is calculated from the ratio of the signals measured at 665 nm and 620 nm. The results are expressed as percent inhibition of the enzyme activity of the control (without PDE4 inhibitor). The enzyme was omitted for measurement of the basic control. The IC50 value (IC50=the concentration that caused the half-maximum inhibition of the specific activity of the control) is derived from dose-response measurements with eight different concentrations (n=2; repeated 2 times)

Sequence of human recombinant PDE4B1 enzyme (Q07343 whole entry): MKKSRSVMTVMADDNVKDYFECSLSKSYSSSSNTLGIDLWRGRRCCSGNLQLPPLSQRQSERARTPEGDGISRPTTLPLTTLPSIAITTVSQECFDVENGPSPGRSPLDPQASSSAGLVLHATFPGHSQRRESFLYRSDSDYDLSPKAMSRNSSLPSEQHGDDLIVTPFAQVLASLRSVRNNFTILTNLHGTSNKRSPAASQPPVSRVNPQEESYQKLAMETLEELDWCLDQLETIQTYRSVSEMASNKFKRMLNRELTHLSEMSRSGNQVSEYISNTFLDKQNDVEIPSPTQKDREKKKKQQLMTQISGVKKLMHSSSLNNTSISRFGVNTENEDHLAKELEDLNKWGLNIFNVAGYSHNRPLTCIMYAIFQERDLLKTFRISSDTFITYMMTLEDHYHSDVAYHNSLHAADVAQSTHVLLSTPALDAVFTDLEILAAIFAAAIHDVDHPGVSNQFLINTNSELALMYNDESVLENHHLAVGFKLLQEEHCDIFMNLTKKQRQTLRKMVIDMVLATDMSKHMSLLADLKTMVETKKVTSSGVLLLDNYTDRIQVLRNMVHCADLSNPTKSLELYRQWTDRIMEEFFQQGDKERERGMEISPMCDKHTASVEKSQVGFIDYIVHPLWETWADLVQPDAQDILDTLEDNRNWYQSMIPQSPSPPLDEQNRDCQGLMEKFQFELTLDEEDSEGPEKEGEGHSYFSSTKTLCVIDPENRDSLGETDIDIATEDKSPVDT

IC50	SMILES
1250 nM	COc1ccc(C(=O)Cn2c(C)cc(=O)cc2C)cc1OCC[S+](C)[O-] (stereo not drawn) [Example 36, 1-(2-(3-methylsulfoxideethoxy-4-methoxyphenyl)-2-oxoethyl)-2,6-dimethylpyridin-4(1H)-one]
510 nM	COc1ccc(C(=O)Cn2c(C)cc(=O)cc2C)cc1OCCS(C)(=O)=O [Example 37, 1-(2-(3-methylsulfoneethoxy-4-methoxyphenyl)-2-oxoethyl)-2,6-dimethylpyridin-4(1H)-one]
1090 nM	COc1ccc(/C(Cn2c(C)cc(=O)cc2C)=N/O)cc1OCC1CC1 [Example 38-1, (Z)-1-(2-(3-cyclopropylmethoxy-4-methoxyphenyl)-2-(hydroxyimido)ethyl)-2,6-dimethylpyridin-4(1H)-one]
71 nM	COc1ccc(/C(Cn2c(C)cc(=O)cc2C)=N\O)cc1OCC1CC1 [Example 38-2, (E)-1-(2-(3-cyclopropylmethoxy-4-methoxyphenyl)-2-(hydroxyimido)ethyl)-2,6-dimethylpyridin-4(1H)-one]
1070 nM	CO/N=C(\Cn1c(C)cc(=O)cc1C)c1ccc(OC)c(OCC2CC2)c1 [Example 39, (Z)-1-(2-(3-cyclopropylmethoxy-4-methoxyphenyl)-2-(methoxyimido)ethyl)-2,6-dimethylpyridin-4(1H)-one]
6.8 nM	CO/N=C(/Cn1c(C)cc(=O)cc1C)c1ccc(OC)c(OCC2CC2)c1 [Example 40, (E)-1-(2-(3-cyclopropylmethoxy-4-methoxyphenyl)-2-(hydroxymethylimido)ethyl)-2,6-dimethylpyridin-4(1H)-one]
1.22 nM	COc1ccc(/C(Cn2c(C)cc(=O)cc2C)=N/OCSC)cc1OCC1CC1 [Example 41, (Z)-1-(2-(3-cyclopropylmethoxy-4-methoxyphenyl)-2-(methylthiomethoxyimido)ethyl)-2,6-dimethylpyridin-4(1H)-one]
8.2 nM	COc1ccc(/C(Cn2c(C)cc(=O)cc2C)=N\OCSC)cc1OCC1CC1 [Example 42, (E)-1-(2-(3-cyclopropylmethoxy-4-methoxyphenyl)-2-(methylthiomethoxyimido)ethyl)-2,6-dimethylpyridin-4(1H)-one]
4.9 nM	COc1ccc(/C(Cn2c(C)cc(=O)cc2C)=N/OC[S+](C)[O-])cc1OCC1CC1 (stereo not drawn) [Example 43, (Z)-1-(2-(3-cyclopropylmethoxy-4-methoxyphenyl)-2-(methylsulfoxidemethoxyimido)ethyl)-2,6-dimethylpyridin-4(1H)-one]
30 nM	COc1ccc(/C(Cn2c(C)cc(=O)cc2C)=N/OCS(C)(=O)=O)cc1OCC1CC1 [Example 44, (Z)-1-(2-(3-cyclopropylmethoxy-4-methoxyphenyl)-2-(methylsulfonemethoxyimido)ethyl)-2,6-dimethylpyridin-4(1H)-one]
170 nM	COc1ccc(C(=O)Cn2ccc(=O)cc2)cc1OCC1CC1 [Example 45, 1-(2-(3-cyclopropylmethoxy-4-methoxyphenyl)-2-oxoethyl)pyridin-4(1H)-one]
25 nM	COc1ccc(C(=O)Cn2ccc(=O)cc2C)cc1OCC1CC1 [Example 46, 1-(2-(3-cyclopropylmethoxy-4-methoxyphenyl)-2-oxoethyl)-2-methylpyridin-4(1H)-one]
7.1 nM	COc1ccc(C(=O)Cn2ccc(=O)cc2Cl)cc1OCC1CC1 [Example 47, 1-(2-(3-cyclopropylmethoxy-4-methoxyphenyl)-2-oxoethyl)-2-chloropyridin-4(1H)-one]
420 nM	COc1ccc(C2CC2n2c(C)cc(=O)cc2C)cc1OCC1CC1 (stereo not drawn) [Example 48, 1-(2-(3-cyclopropylmethoxy-4-methoxyphenyl)cyclopropyl)-2,6-dimethylpyridin-4(1H)-one]
2.9 nM	Cc1cc(=O)cc(C)n1CC(=O)c1ccc(OC(F)F)c(OCC2CC2)c1 [Example 49, 1-(2-(3-cyclopropylmethoxy-4-difluoromethoxyphenyl)-2-oxoethyl)-2,6-dimethylpyridin-4(1H)-one]
180 nM	COc1ccc(/C=C/n2ccc(=O)cc2)cc1OCC1CC1 [Example 50, (E)-1-(3-cyclopropylmethoxy-4-methoxystyryl)pyridin-4(1H)-one]
57 nM	COc1ccc(/C=C/n2ccc(=O)cc2C)cc1OCC1CC1 [Example 51, (E)-1-(3-cyclopropylmethoxy-4-methoxystyryl)-2-methylpyridin-4(1H)-one]
15 nM	CCCOc1cc(/C=C/n2c(C)cc(=O)cc2C)ccc1OC [Example 53, (E)-1-(3-propoxy-4-methoxystyryl)-2,6-dimethylpyridin-4(1H)-one]
26 nM	COc1ccc(/C=C/n2c(C)cc(=O)cc2C)cc1OC(C)C [Example 54, (E)-1-(3-isopropoxy-4-methoxystyryl)-2,6-dimethylpyridin-4(1H)-one]

IC50	SMILES
100 nM	COc1ccc(/C=C/n2c(C)cc(=O)cc2C)cc1OCC(C)(C)C [Example 57, (E)-1-((3-neopentyloxy-4-methoxy)-styryl)-2,6-dimethylpyridin-4(1H)-one]
5.5 nM	COc1ccc(/C=C/n2c(C)cc(=O)cc2C)cc1OC1CC1 [Example 58, (E)-1-(3-cyclopropyloxy-4-methoxystyryl)-2,6-dimethylpyridin-4(1H)-one]
5.1 nM	COc1ccc(/C=C/n2c(C)cc(=O)cc2C)cc1OCC1CC1 [Example 59, (E)-1-(3-cyclopropylmethoxy-4-methoxystyryl)-2,6-dimethylpyridin-4(1H)-one]
1200 nM	COc1ccc(CCn2c(C)cc(=O)cc2C)cc1OCC1CC1 [Example 60, (E)-1-(3-cyclopropylmethoxy-4-methoxyphenethyl)-2,6-dimethylpyridin-4(1H)-one]
6.2 nM	COc1ccc(/C=C/n2c(C)cc(=O)cc2C)cc1OC1CCC1 [Example 61, (E)-1-(3-cyclobutyloxy-4-methoxy-styryl)-2,6-dimethylpyridin-4(1H)-one]
10.2 nM	COc1ccc(/C=C/n2c(C)cc(=O)cc2C)cc1OC1CCCC1 [Example 62, (E)-1-((3-cyclopentyloxy-4-methoxy)-styryl)-2,6-dimethylpyridin-4(1H)-one]
11.1 nM	COc1ccc(/C=C/n2c(C)cc(=O)cc2C)cc1OC1CC=CC1 [Example 63, (E)-1-(3-(cyclopent-3-en-1-yloxy)-4-methoxystyryl)-2,6-dimethylpyridin-4(1H)-one]
43 nM	C=CCOc1cc(/C=C/n2c(C)cc(=O)cc2C)ccc1OC [Example 64, (E)-1-(3-allyloxy-4-methoxy-styryl)-2,6-dimethylpyridin-4(1H)-one]
520 nM	COc1ccc(/C=C/n2c(C)cc(=O)cc2C)cc1OCC=C(C)C [Example 65, (E)-1-((3-(3-methylbut-2-en-1-yl)oxy-4-methoxy)-styryl)-2,6-dimethylpyridin-4(1H)-one]
270 nM	C#CCOc1cc(/C=C/n2c(C)cc(=O)cc2C)ccc1OC [Example 66]
170 nM	CC#CCOc1cc(/C=C/n2c(C)cc(=O)cc2C)ccc1OC [Example 67, (E)-1-(3-(but-2-yn-1-yloxy)-4-methoxystyryl)-2,6-dimethylpyridin-4(1H)-one]
27 nM	COc1ccc(/C=C/n2c(C)cc(=O)cc2C)cc1OC1COC1 [Example 68, (E)-1-((3-(oxacyclobutan-3-yl-oxy)-4-methoxy)-styryl)-2,6-dimethylpyridin-4(1H)-one]
5200 nM	COc1ccc(/C=C/n2c(C)cc(=O)cc2C)cc1OC1CSC1 [Example 69, (E)-1-((3-(thiacyclobutan-3-yl-oxy)-4-methoxy)-styryl)-2,6-dimethylpyridin-4(1H)-one]
8.1 nM	COc1ccc(/C=C/n2c(C)cc(=O)cc2C)cc1OC1CCCO1 (stereo not drawn) [Example 70, (E)-1-((3-(tetrahydrofuran-2-yl)oxy-4-methoxy)-styryl)-2,6-dimethylpyridin-4(1H)-one]
1420 nM	CNC(=O)COc1cc(/C=C/n2c(C)cc(=O)cc2C)ccc1OC [Example 71, (E)-2-(5-(2-(2,6-dimethyl-4-carbonylpyridin-1(4H)-yl)ethenyl)-2methoxyphenoxy)-N-methylacetamide]
3900 nM	COc1ccc(/C=C/n2c(C)cc(=O)cc2C)cc1OC(=O)C1CC1 [Example 72, (E)-1-((3-cyclopropylformyloxy-4-methoxy)-styryl)-2,6-dimethylpyridin-4(1H)-one]
38 nM	COc1ccc(/C=C/n2c(C)cc(=O)cc2C)cc1OCSC [Example 74, (E)-1-(3-methylthiomethoxy-4-methoxystyryl)-2,6-dimethylpyridin-4(1H)-one]
290 nM	COc1ccc(/C=C/n2c(C)cc(=O)cc2C)cc1OC[S+](C)[O-] (stereo not drawn) [Example 75, (E)-1-(3-methylsulfoxidemethoxy-4-methoxystyryl)-2,6-dimethylpyridin-4(1H)-one]

SMILES	IC50
CCCCOc1cc(/C=C/n2c(C)cc(=O)cc2C)ccc1OC [Example 55, (E)-1-((3-n-butoxy-4-methoxy)-styryl)-2,6-dimethylpyridin-4(1H)-one]	54 nM
COc1ccc(/C=C/n2c(C)cc(=O)cc2C)cc1OCC(C)C [Example 56, (E)-1-(3-iso-butoxy-4-methoxystyryl)-2,6-dimethylpyridin-4(1H)-one]	16 nM

Reference: US11440886B2, “Anti-inflammatory compound, and preparation and use thereof” (E-Nitiate Biopharmaceuticals (Hangzhou) Co., Ltd., priority 2018, dated 2022)
